Two compounds from US8124778B2, “Tricyclic inhibitors of fatty acid amide hydrolase” (The Scripps Research Institute, priority 2007, dated 2012) can be followed below.

In one experiment the target is T1, KIAA1363 (Mus musculus, UniProt Q8BLF1).
T1 construct: from tissue
T1 sequence (Q8BLF1 1-408): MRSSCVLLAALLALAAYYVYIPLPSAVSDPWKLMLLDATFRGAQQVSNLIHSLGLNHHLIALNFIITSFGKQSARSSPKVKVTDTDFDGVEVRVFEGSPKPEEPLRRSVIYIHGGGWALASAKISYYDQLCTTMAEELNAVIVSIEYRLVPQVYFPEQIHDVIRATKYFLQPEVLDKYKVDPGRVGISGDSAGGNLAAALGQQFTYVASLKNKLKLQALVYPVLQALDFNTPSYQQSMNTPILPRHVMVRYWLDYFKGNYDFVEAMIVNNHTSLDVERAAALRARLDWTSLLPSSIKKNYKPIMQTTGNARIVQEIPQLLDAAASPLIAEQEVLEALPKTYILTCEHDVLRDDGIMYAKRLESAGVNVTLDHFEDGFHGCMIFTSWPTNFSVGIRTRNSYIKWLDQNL
The experiment can be described thus: Proteome-wide selectivity screening, KIAA1363. Type of experiment: biochemical. The settings on record: IC50 based. An excerpt: (§1) The present invention concerns the synthesis and evaluation of a systematic series of α-keto oxazole inhibitors having variations at the C2 acyl side chain along with results of the proteome-wide selectivity screening of the candidate inhibitors. The screening protocol is described by Leung, D.; Hardouin, C.; et al. Nature Biotech. 2003, 21, 687-691.
(§2) Selectivity Screening. […] Consequently a method for proteomic-wide screening capable of globally profiling all mammalian serine hydrolases was developed (Leung, D.; Hardouin, C.; et al. Nature Biotech. 2003, 21, 687-691) and studies have shown that the α-ketoheterocycle class of inhibitors generally are exquisitely selective for FAAH (Boger, D. L.; Miyauchi, H.; et al. J. Med. Chem. 2005, 48, 1849-1856; Leung, D.; Du, W.; et al. Bioorg. Med. Chem. Lett. 2005, 15, 1423-1428; Lichtman, A. H.; Leung, D.; et al. J. Pharmacol. Exp. Ther. 2004, 311, 441-448). However, two enzymes did emerge as potential competitive targets: triacylglycerol hydrolase (TGH) and an uncharacterized membrane-associated hydrolase that lacks known substrates or function (KIAA1363). In this screen, IC50 values are typically higher than the measured Ki values, but the relative potency, the magnitude of binding affinity differences and the rank order binding determined in the assay parallels that established by standard substrate assays. […]

The target in experiment [1] is T2, triacylglycerol hydrolase (TGH) (Mus musculus, UniProt Q8VCT4).
T2 construct: from tissue
T2 sequence (Q8VCT4 19-565): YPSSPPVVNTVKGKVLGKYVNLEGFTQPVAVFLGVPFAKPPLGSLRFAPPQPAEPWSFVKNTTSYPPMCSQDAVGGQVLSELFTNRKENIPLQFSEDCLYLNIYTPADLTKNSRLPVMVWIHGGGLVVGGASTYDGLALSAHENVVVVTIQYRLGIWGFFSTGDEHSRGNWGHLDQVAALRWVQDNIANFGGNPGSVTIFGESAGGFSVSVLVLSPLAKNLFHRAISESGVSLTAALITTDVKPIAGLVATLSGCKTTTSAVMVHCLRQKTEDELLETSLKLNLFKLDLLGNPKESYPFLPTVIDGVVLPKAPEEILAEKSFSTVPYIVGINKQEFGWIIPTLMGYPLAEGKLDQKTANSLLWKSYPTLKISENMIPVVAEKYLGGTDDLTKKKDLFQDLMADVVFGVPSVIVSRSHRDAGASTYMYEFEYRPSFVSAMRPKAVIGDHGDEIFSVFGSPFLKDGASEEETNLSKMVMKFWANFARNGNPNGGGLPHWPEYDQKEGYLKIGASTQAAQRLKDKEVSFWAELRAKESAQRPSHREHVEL
The experiment can be described thus: Proteome-wide selectivity screening, TGH. It is filed as biochemical. Particulars: IC50 based.
Text: as §1, §2

Regarding `O=C(CCCCCCc1cccnc1)c1ncc(-c2ccccn2)o1` [5f, 1-Oxo-1-[5-(2-pyridyl)oxazol-2-yl]-7-(3-pyridyl)heptane], the “selectivity for FAAH over KIAA1363 (in words)” value on KIAA1363 is recorded as “very selective”. In addition, the “selectivity for FAAH over TGH (in words)” value in experiment [1] is reported as “moderately selective”.
Turning to `O=C(CCCCCCc1ccccn1)c1ncc(-c2ccccn2)o1` [5e, 1-Oxo-1-[5-(2-pyridyl)oxazol-2-yl]-7-(2-pyridyl)heptane], the “selectivity for FAAH over KIAA1363 (in words)” value on KIAA1363 is recorded as “very selective”. Moreover, the “selectivity for FAAH over TGH (in words)” value in experiment [1] is on record as “moderately selective”.
